Experimental findings from patent US20210015098A1, “MOLECULES HAVING PESTICIDAL UTILITY, AND INTERMEDIATES, COMPOSITIONS, AND PROCESSES, RELATED THERETO” (DOW AGROSCIENCES LLC, priority 2018, published 2021) are described below.

The test system of experiment [1] is Cabbage Looper (Trichoplusia ni, TRIPNI). In words: Bioassays on Cabbage Looper (CL), 128-well diet tray assay. The format is in vivo. The note with it: Cabbage Looper, Table ABC Biological Results, read-out: CL (rating). Here is the method:
(§1) Certain molecules disclosed in this document were tested against BAW and CL using procedures described in the following examples. In the reporting of the results, the “BAW & CL Rating Table” was used (See Table Section).
Bioassays on CL were conducted using a 128-well diet tray assay. One to five second instar CL larvae were placed in each well (3 mL) of the diet tray that had been previously filled with 1 mL of artificial diet to which 50 μg/cm^2 of the test molecule (dissolved in 50 μL of 90:10 acetone-water mixture) had been applied (to each of eight wells) and then allowed to dry. Trays were covered with a clear self-adhesive cover, vented to allow gas exchange, and held at 25° C., 14:10 light-dark for five to seven days. Percent mortality was recorded for the larvae in each well; activity in the eight wells was then averaged. The results are indicated in the table entitled “Table ABC: Biological Results” (See Table Section).

The subject of experiment [2] is Beet Armyworm (Spodoptera exigua, LAPHEG). Kind of experiment: Bioassays on Beet Armyworm (BAW), 128-well diet tray assay. Type of experiment: in vivo. The note with it: Beet Armyworm, Table ABC Biological Results, read-out: BAW (rating). The procedure: as §1
Bioassays on BAW were conducted using a 128-well diet tray assay. One to five second instar BAW larvae were placed in each well (3 mL) of the diet tray that had been previously filled with 1 mL of artificial diet to which 50 μg/cm^2 of the test molecule (dissolved in 50 μL of 90:10 acetone-water mixture) had been applied (to each of eight wells) and then allowed to dry. Trays were covered with a clear self-adhesive cover, vented to allow gas exchange, and held at 25° C., 14:10 light-dark for five to seven days. Percent mortality was recorded for the larvae in each well; activity in the eight wells was then averaged. The results are indicated in the table entitled “Table ABC: Biological Results” (See Table Section).

SMILES strings stand for the structures.

For the molecule `O=C(CSC(F)(F)F)Nc1c(F)ccc(NC(=O)c2cc(NC(=O)[C@H]3[C@H](c4cc(C(F)(F)F)cc(C(F)(F)F)c4)C3(Cl)Cl)ccc2Cl)c1F` (relative stereo) [F48, trans-5-(3-(3,5-Bis(trifluoromethyl)phenyl)-2,2-dichlorocyclopropane-1-carboxamido)-2-chloro-N-(2,4-difluoro-3-(2-((trifluoromethyl)thio)acetamido)phenyl)benzamide], the pest or weed control at 50 µg/cm2 in experiment [1] and in experiment [2] was 50 to 100% in each case.

Regarding `CSC(F)(F)C(=O)Nc1c(F)ccc(NC(=O)c2cc(NC(=O)[C@H]3[C@H](c4ccc(F)c(C(F)(F)F)c4)C3(Cl)Cl)ccc2Cl)c1F` [F1, 2-Chloro-5-((1R,3R)-2,2-dichloro-3-(4-fluoro-3-(trifluoromethyl)phenyl)cyclopropane-1-carboxamido)-N-(3-(2,2-difluoro-2-(methylthio)acetamido)-2,4-difluorophenyl)benzamide], the pest or weed control at 50 µg/cm2 in experiment [1] and in experiment [2] was 50 to 100% throughout.

As for `O=C(CSc1ccncc1)Nc1c(F)ccc(NC(=O)c2cc(NC(=O)[C@H]3[C@H](c4ccc(F)c(C(F)(F)F)c4)C3(Cl)Cl)ccc2Cl)c1F` [F2, 2-Chloro-5-((1R,3R)-2,2-dichloro-3-(4-fluoro-3-(trifluoromethyl)phenyl)cyclopropane-1-carboxamido)-N-(2,4-difluoro-3-(2-(pyridin-4-ylthio)acetamido)phenyl)benzamide], the pest or weed control at 50 µg/cm2 in experiment [1] and in experiment [2] was 50 to 100% throughout.

As to `O=C(CSc1ccc(F)cc1)Nc1c(F)ccc(NC(=O)c2cc(NC(=O)[C@H]3[C@H](c4ccc(F)c(C(F)(F)F)c4)C3(Cl)Cl)ccc2Cl)c1F` [F4, 2-Chloro-5-((1R,3R)-2,2-dichloro-3-(4-fluoro-3-(trifluoromethyl)phenyl)cyclopropane-1-carboxamido)-N-(2,4-difluoro-3-(2-((4-fluorophenyl)thio)acetamido)phenyl)benzamide], the pest or weed control at 50 µg/cm2 in experiment [1] and in experiment [2] was 50 to 100% throughout.

Regarding `O=C(CSCCC(F)(F)F)Nc1c(F)ccc(NC(=O)c2cc(NC(=O)[C@H]3[C@H](c4ccc(F)c(C(F)(F)F)c4)C3(Cl)Cl)ccc2Cl)c1F` [F5, 2-Chloro-5-((1R,3R)-2,2-dichloro-3-(4-fluoro-3-(trifluoromethyl)phenyl)cyclopropane-1-carboxamido)-N-(2,4-difluoro-3-(2-((3,3,3-trifluoropropyl)thio)acetamido)phenyl)benzamide], the pest or weed control at 50 µg/cm2 in experiment [1] and in experiment [2] was 50 to 100% in each case.

Take `O=C(CSCC(F)(F)F)Nc1c(F)ccc(NC(=O)c2cc(NC(=O)[C@H]3[C@H](c4cc(Cl)c(Cl)c(Cl)c4)C3(Cl)Cl)ccc2Cl)c1F` [F6, 2-Chloro-5-((1R,3R)-2,2-dichloro-3-(3,4,5-trichlorophenyl)cyclopropane-1-carboxamido)-N-(2,4-difluoro-3-(2-((2,2,2-trifluoroethyl)thio)acetamido)phenyl)benzamide]: the pest or weed control at 50 µg/cm2 in experiment [1] and in experiment [2] was 50 to 100% each time.

Consider `CC(SC(F)(F)F)C(=O)Nc1c(F)ccc(NC(=O)c2cc(NC(=O)[C@H]3[C@H](c4cc(Cl)c(Cl)c(Cl)c4)C3(Cl)Cl)ccc2Cl)c1F` (stereo partly drawn) [F7, 2-Chloro-5-((1R,3R)-2,2-dichloro-3-(3,4,5-trichlorophenyl)cyclopropane-1-carboxamido)-N-(2,4-difluoro-3-(2-((trifluoromethyl)thio)propanamido)phenyl)benzamide], for which the pest or weed control at 50 µg/cm2 in experiment [1] and in experiment [2] was 50 to 100% in each case.

Turning to `O=C(CSC(F)(F)F)Nc1c(F)ccc(NC(=O)c2cc(NC(=O)[C@H]3[C@H](c4cc(Cl)c(Cl)c(Cl)c4)C3(Cl)Cl)ccc2Cl)c1F` [F8, 2-Chloro-5-((1R,3R)-2,2-dichloro-3-(3,4,5-trichlorophenyl)cyclopropane-1-carboxamido)-N-(2,4-difluoro-3-(2-((trifluoromethyl)thio)acetamido)phenyl)benzamide], the pest or weed control at 50 µg/cm2 in experiment [1] and in experiment [2] was 50 to 100% throughout.

Regarding `O=C(CSCC(F)(F)F)Nc1c(F)ccc(NC(=O)c2cc(NC(=O)[C@H]3[C@H](c4ccc(Cl)c(Cl)c4)C3(Cl)Cl)ccc2Cl)c1F` [F9, 2-Chloro-5-((1R,3R)-2,2-dichloro-3-(3,4-dichlorophenyl)cyclopropane-1-carboxamido)-N-(2,4-difluoro-3-(2-((2,2,2-trifluoroethyl)thio)acetamido)phenyl)benzamide], the pest or weed control at 50 µg/cm2 in experiment [1] and in experiment [2] was 50 to 100% throughout.

`CC(SC(F)(F)F)C(=O)Nc1c(F)ccc(NC(=O)c2cc(NC(=O)[C@H]3[C@H](c4ccc(Cl)c(Cl)c4)C3(Cl)Cl)ccc2Cl)c1F` (stereo partly drawn) [F10, 2-Chloro-5-((1R,3R)-2,2-dichloro-3-(3,4-dichlorophenyl)cyclopropane-1-carboxamido)-N-(2,4-difluoro-3-(2-((trifluoromethyl)thio)propanamido)phenyl)benzamide]: the pest or weed control at 50 µg/cm2 in experiment [1] and in experiment [2] was 50 to 100% in each case.

Consider `O=C(CSC(F)(F)F)Nc1c(F)ccc(NC(=O)c2cc(NC(=O)[C@H]3[C@H](c4ccc(Cl)c(Cl)c4)C3(Cl)Cl)ccc2Cl)c1F` [F11, 2-Chloro-5-((1R,3R)-2,2-dichloro-3-(3,4-dichlorophenyl)cyclopropane-1-carboxamido)-N-(2,4-difluoro-3-(2-((trifluoromethyl)thio)acetamido)phenyl)benzamide], for which the pest or weed control at 50 µg/cm2 in experiment [1] and in experiment [2] was 50 to 100% throughout.

For the molecule `O=C(CSCC(F)(F)F)Nc1c(F)ccc(NC(=O)c2cc(NC(=O)[C@H]3[C@H](c4ccc(F)c(Cl)c4)C3(Cl)Cl)ccc2Cl)c1F` [F12, 2-Chloro-5-((1R,3R)-2,2-dichloro-3-(3-chloro-4-fluorophenyl)cyclopropane-1-carboxamido)-N-(2,4-difluoro-3-(2-((2,2,2-trifluoroethyl)thio)acetamido)phenyl)benzamide], the pest or weed control at 50 µg/cm2 in experiment [1] and in experiment [2] was 50 to 100% each time.

As to `CC(SC(F)(F)F)C(=O)Nc1c(F)ccc(NC(=O)c2cc(NC(=O)[C@H]3[C@H](c4ccc(F)c(Cl)c4)C3(Cl)Cl)ccc2Cl)c1F` (stereo partly drawn) [F13, 2-Chloro-5-((1R,3R)-2,2-dichloro-3-(3-chloro-4-fluorophenyl)cyclopropane-1-carboxamido)-N-(2,4-difluoro-3-(2-((trifluoromethyl)thio)propanamido)phenyl)benzamide], the pest or weed control at 50 µg/cm2 in experiment [1] and in experiment [2] was 50 to 100% throughout.

On to `O=C(CSC(F)(F)F)Nc1c(F)ccc(NC(=O)c2cc(NC(=O)[C@H]3[C@H](c4ccc(F)c(Cl)c4)C3(Cl)Cl)ccc2Cl)c1F` [F14, 2-Chloro-5-((1R,3R)-2,2-dichloro-3-(3-chloro-4-fluorophenyl)cyclopropane-1-carboxamido)-N-(2,4-difluoro-3-(2-((trifluoromethyl)thio)acetamido)phenyl)benzamide], for which the pest or weed control at 50 µg/cm2 in experiment [1] and in experiment [2] was 50 to 100% each time.
